Data as given in patent US9480754B2, “Phospholipid ether analogs as cancer-targeting drug vehicles” (Cellectar Biosciences, Inc., priority 2014, dated 2016).

Assays:
[1] = system: cancer cell lines (renal, ovarian, pancreatic, melanoma, prostate) vs normal human skin fibroblast; assay: CLR1501 uptake in cancer cell lines vs normal fibroblasts (confocal microscopy); format: cell-based; settings: 24 hours, 5 or 7.5 μM, in vitro
Excerpt: Human cancer cell lines were purchased from the American Type Culture Collection (ATCC). They included the following: Caki-2 (renal; clear cell carcinoma), HCT-116 (colorectal carcinoma); MES-SA/Dx5 (uterine sarcoma) [all maintained in McCoy's 5a medium supplemented with 10% fetal bovine serum (FBS)], Ovcar-3 (ovarian adenocarcinoma) [maintained in RPMI medium supplemented with 20% FBS], U87-MG (glioma) [maintained in minimum essential medium supplemented with 10% FBS], Mia Paca-2 (pancreatic carcinoma) (maintained in Dulbecco's modified Eagle's medium supplemented with 10% FBS), PC-3 (prostate carcinoma) (maintained in F-12K medium supplemented with 10% FBS), MDA-MB-231 (triple-negative mammary gland adenocarcinoma) (maintained in Leibovitz's medium supplemented with 10% FBS), and A549 (non-small cell lung carcinoma) (maintained in F-12 medium supplemented with 10% FBS). Normal human skin fibroblasts were purchased from ATCC and grown in Fibroblast Basal Medium PCS-201-030 supplemented with serum-free kit (Fibroblast Growth Kit-Serum-Free PCS-201-040). […]
All cells were maintained at 37° C. in appropriate medium supplemented with 10% FBS and 5% CO2. […] The emission signal of CLR1501 was detected using Alexa Fluor 488 filters (ex/em 480/520 nm). […]

[2] = system: human glioblastoma stemlike cells and serum-cultured human glioblastoma cells; settings: Weichert 2014, FIG. 2; cited from earlier work
MDA-MB-468 cells [3] = assay: Annexin V/PI flow cytometry, MDA-MB-468; format: cell-based
Protocol: (§1) Debris was eliminated from this analysis.
MDA-MB-468 cells, were also treated with CLR conjugates (CLR1606 and CLR1607) for 72 hours and with geldanamycin (“GEL”) for 48 hours.
(§2) CLR conjugates appear to require a longer treatment period with cells to induce cell death.

MDA-MB-468 cells [4] = assay: Annexin V/PI flow cytometry, MDA-MB-468; format: cell-based; settings: MDA-MB-468, 1 uM, 48 hrs
[5] = system: MDA-MB-468, NCI-H1299, NCI-H460, Capan-2, MiaPaCa-1, HT29, HCT116 and PC-3 cancer cell lines; assay: Cell viability, panel of eight cancer cell lines; format: cell-based; settings: serial concentrations
Protocol: The cell lines were then measured for cell viability and reported as IC50 for each treatment.
In vivo, free paclitaxel is taken up by cancerous tumor cells at a much lower rate due to the non-specific nature of paclitaxel uptake.

22RV1 cells = assay: Annexin V/PI flow cytometry, 22RV1; format: cell-based; settings: table title 72 hours, GEL for 48 hours
Protocol: as §1
22RV1 cells, a prostate cancer cell line, were treated with GEL conjugates (CLR1606 and CLR1607) for 72 hrs and GEL for 48 hours. Cell viability was 20.3%, 21.3%, 16.0%, 21.9%, 15.7%, 19.4%, and 28.1% after treatment with no drug, 1 μM CLR1606, 10 μM CLR1606, 1 μM CLR1607, 10 μM CLR1607, 100 nM GEL, and 1 μM GEL, respectively.

COLO 829 cells = assay: Annexin V/PI flow cytometry, COLO 829; format: cell-based
Protocol: as §1
COLO 829 cells, a melanoma cell line, were treated with […] (CLR1606 and CLR1607) for 72 hrs and GEL for 48 hours.
as §2

PANC-1 cells = assay: Annexin V/PI flow cytometry, PANC-1; format: cell-based; settings: table title 72 hours, GEL for 48 hours
Protocol: as §1
PANC-1 cells, a pancreatic cancer cell line, were treated with GEL conjugates (CLR1606 and CLR1607) for 72 hrs and GEL for 48 hours.

C6 glioma = assay: Rat C6 glioma model, tissue distribution of NM404; format: in vivo; settings: C6 glioma-bearing rats, 24 h after tail vein injection
Protocol: Materials and Methods: All animals were housed and handled in accordance with the University of Wisconsin Research Animal Resources Center guidelines. Rat C6 glioma cells were propagated in DMEM medium (Life Technologies, Gaithersburg, Md.) supplemented with 10% heat-inactivated FBS (BioWhittaker, Walkersville, Md.), 100 U/ml penicillin G, […] streptomycin, and 0.01 M HEPES (Life Technologies, Gaithersburg, Md.). Intracranial tumor implantation was performed as described previously. Cohen J D, et al., Intracranial C6 glioma model in adult Wistar-Furth rats. J Neuro Oncol 1990 8(1):95-6. Briefly, 1×10^6 C6 cells were resuspended in […] 1.2% methylcellulose and injected into the frontal lobes of anesthetized female Wistar rats (Harlan, Indianapolis, Ind.). Sham-operated animals received intracranial injections of an equal volume of methylcellulose without tumor cells.
Imaging Studies: Ten days after implantation, the presence of intracranial tumors was confirmed with MRI. […]
NM404 [18-(4-iodophenyl)-octadecylphosphocholine] […] In addition, normal brain, blood, kidney, liver, spleen, thyroid, and tumor tissues were weighed, and radioactivity counted in a gamma counter. The tissue distribution of radioactivity was then correlated to brain histology.

PC-3 cells = assay: 125I-CLR1404 uptake after lipid raft disruption with filipin III; format: cell-based; settings: PC-3 cells pretreated with 2 μg/ml filipin III 15 min, then 125I-CLR1404 1 h; vs untreated control cells
Protocol: PC-3 cells were pretreated with either 2 μg/ml filipin III or vehicle for 15 min, then washed and incubated with 2 μCi of ^125I-CLR1404 for 1 h. The media was removed and the cells were washed with phosphate buffered saline containing 0.1% bovine serum albumin, trypsinized, then split into two samples for determination of cell number by DNA content (A280 compared to a cell line specific standard curve) and counts per minute using a Gamma Counter (Perkin Elmer).
This supports the hypothesis that CLR1404 uses lipid rafts as portals of entry into cancer cells.

[6] = MDA-MB-468, 1 uM, 72 hrs (Table 3)

C[N+](C)(C)CCOP(=O)([O-])OCCCCCCCCCCCCCCCCCCc1ccc(C2=C3C=CC=[N+]3[B-](F)(F)n3cccc32)cc1 [CLR1501]
preferential uptake in cancer cell lines compared to normal fibroblasts [1]: five to nine-fold
uptake compared to normal human astrocytes and fetal human neural stem cells [2]: enhanced uptake

CC(=O)O[C@H]1C(=O)[C@@]2(C)[C@H]([C@H](OC(=O)c3ccccc3)[C@]3(O)C[C@H](OC(=O)[C@H](OC(=O)CCCC(=O)Nc4ccc(CCCCCCCCCCCCCCCCCCOP(=O)([O-])OCC[N+](C)(C)C)cc4)[C@@H](NC(=O)c4ccccc4)c4ccccc4)C(C)=C1C3(C)C)[C@]1(OC(C)=O)CO[C@@H]1C[C@@H]2O [CLR1601]
Early Apoptotic (MDA-MB-468 cells [3]; [6]): 9.83 % of total cells
Live (MDA-MB-468 cells [3]; [6]): 17 % of total cells
Live (MDA-MB-468 cells [3]; MDA-MB-468, 5 uM, 72 hrs): 17.8 % of total cells
Late Apoptotic (MDA-MB-468 cells [4]): 6 % of total cells
Live (MDA-MB-468 cells [4]): 79.4 % of total cells
ability to reduce cancer cell line viability [5]: capable of reducing cell viability

CC(=O)O[C@H]1C(=O)[C@]2(C)[C@@H](OC(=O)NCCCC(=O)Nc3ccc(CCCCCCCCCCCCCCCCCCOP(=O)([O-])OCC[N+](C)(C)C)cc3)C[C@H]3OC[C@@]3(OC(C)=O)[C@H]2[C@H](OC(=O)c2ccccc2)[C@]2(O)C[C@H](OC(=O)[C@H](O)[C@@H](NC(=O)c3ccccc3)c3ccccc3)C(C)=C1C2(C)C [CLR1602]
ability to reduce cancer cell line viability [5]: not capable of significantly reducing cancer cell line viability

CC(=O)O[C@H]1C(=O)[C@@]2(C)[C@H]([C@H](OC(=O)c3ccccc3)[C@]3(O)C[C@H](OC(=O)[C@H](OC(=O)OCCCCC(=O)Nc4ccc(CCCCCCCCCCCCCCCCCCOP(=O)([O-])OCC[N+](C)(C)C)cc4)[C@@H](NC(=O)c4ccccc4)c4ccccc4)C(C)=C1C3(C)C)[C@]1(OC(C)=O)CO[C@@H]1C[C@@H]2O [CLR1603]
Live (MDA-MB-468 cells [3]; [6]): 22.2 % of total cells
Necrotic (MDA-MB-468 cells [3]; [6]): 22 % of total cells
Live (MDA-MB-468 cells [3]; MDA-MB-468, 5 uM, 72 hrs): 19.7 % of total cells
Early Apoptotic (MDA-MB-468 cells [4]): 1.4 % of total cells
Live (MDA-MB-468 cells [4]): 81.4 % of total cells
ability to reduce cancer cell line viability [5]: capable of reducing cell viability

COC1=C2C[C@@H](C)C[C@H](OC)[C@H](O)[C@@H](C)/C=C(\C)[C@H](OC(N)=O)[C@@H](OC)/C=C\C=C(/C)C(=O)NC(=CC1=O)C2=O [GEL, geldanamycin]
Live (22RV1 cells; 22RV1, GEL 100 nM): 19.4 % of total cells
Live (22RV1 cells; 22RV1, GEL 1 uM): 28.1 % of total cells
Live (MDA-MB-468 cells [3]; MDA-MB-468, GEL 1 uM, table title 72 hours, text: geldanamycin for 48 hours): 26.2 % of total cells
Live (COLO 829 cells; COLO 829, 100 nM, 48 hrs (Table 9)): 36.1 % of total cells
Live (COLO 829 cells; COLO 829, 1 uM, 48 hrs (Table 9)): 24.6 % of total cells
Live (COLO 829 cells; COLO 829, GEL 100 nM, Table 5 title 72 hours, GEL for 48 hours): 32.4 % of total cells
Live (COLO 829 cells; COLO 829, GEL 1 uM, Table 5 title 72 hours, GEL for 48 hours): 18.6 % of total cells
Live (PANC-1 cells; PANC-1, GEL 100 nM): 23.3 % of total cells
Live (PANC-1 cells; PANC-1, GEL 1 uM): 18.9 % of total cells

C[N+](C)(C)CCOP(=O)([O-])OCCCCCCCCCCCCCCCCCCc1ccc(I)cc1 [NM404, 18-(4-iodophenyl)-octadecylphosphocholine]
Tumor to brain ratio (% injected dose/g) (C6 glioma): 10.5
reduction of uptake when lipid rafts are disrupted (PC-3 cells): ~40%
